Source: patent publication US12275731B2, “Azaindole inhibitors of wild-type and mutant forms of LRRK2” (DANA-FARBER CANCER INSTITUTE, INC., priority 2018, dated 2025)

Columns and labels:
Test in all cases: KinomeScan profiling
Type in all cases: binding
[1] = target: MKNK1 (Homo sapiens, UniProt Q9BUB5); conditions: MKNK1, 1 μM; read-out: % control
Procedure, shortened: (§1)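 The panel spans 468 kinases, and each inventive compound was applied at 1 μM from DMSO. Lower % control means stronger binding; the activity cut-off is set at less than 35%.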

[2] = target: T1, PRKCE (Homo sapiens, UniProt Q02156); conditions: read-out: % control
T1 sequence (Q02156 1-737): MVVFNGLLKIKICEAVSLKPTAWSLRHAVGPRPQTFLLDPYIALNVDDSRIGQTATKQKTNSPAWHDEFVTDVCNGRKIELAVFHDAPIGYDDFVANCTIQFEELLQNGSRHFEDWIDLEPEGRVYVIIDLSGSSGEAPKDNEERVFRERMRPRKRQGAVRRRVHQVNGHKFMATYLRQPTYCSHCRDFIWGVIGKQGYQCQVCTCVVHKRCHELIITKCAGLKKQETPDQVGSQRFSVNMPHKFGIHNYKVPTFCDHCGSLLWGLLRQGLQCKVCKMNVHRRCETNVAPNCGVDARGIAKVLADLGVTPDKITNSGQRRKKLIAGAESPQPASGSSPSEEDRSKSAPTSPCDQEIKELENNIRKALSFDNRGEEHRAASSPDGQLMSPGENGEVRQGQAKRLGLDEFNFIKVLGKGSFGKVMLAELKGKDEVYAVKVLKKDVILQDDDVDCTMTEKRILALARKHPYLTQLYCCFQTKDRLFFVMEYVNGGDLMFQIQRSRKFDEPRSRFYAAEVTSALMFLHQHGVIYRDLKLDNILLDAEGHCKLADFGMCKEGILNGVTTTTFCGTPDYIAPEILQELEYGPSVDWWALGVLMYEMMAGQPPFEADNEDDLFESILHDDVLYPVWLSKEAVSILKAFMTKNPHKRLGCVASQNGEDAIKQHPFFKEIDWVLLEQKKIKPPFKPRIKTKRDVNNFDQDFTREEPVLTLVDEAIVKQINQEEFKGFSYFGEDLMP
Procedure, shortened: as §1

[3] = target: PRKCQ (Homo sapiens, UniProt Q04759); conditions: read-out: % control
Procedure, shortened: as §1

[4] = target: T2, GRK7 (Homo sapiens, UniProt Q8WTQ7); conditions: GRK7, 1 μM; read-out: % control
T2 sequence (Q8WTQ7 1-553): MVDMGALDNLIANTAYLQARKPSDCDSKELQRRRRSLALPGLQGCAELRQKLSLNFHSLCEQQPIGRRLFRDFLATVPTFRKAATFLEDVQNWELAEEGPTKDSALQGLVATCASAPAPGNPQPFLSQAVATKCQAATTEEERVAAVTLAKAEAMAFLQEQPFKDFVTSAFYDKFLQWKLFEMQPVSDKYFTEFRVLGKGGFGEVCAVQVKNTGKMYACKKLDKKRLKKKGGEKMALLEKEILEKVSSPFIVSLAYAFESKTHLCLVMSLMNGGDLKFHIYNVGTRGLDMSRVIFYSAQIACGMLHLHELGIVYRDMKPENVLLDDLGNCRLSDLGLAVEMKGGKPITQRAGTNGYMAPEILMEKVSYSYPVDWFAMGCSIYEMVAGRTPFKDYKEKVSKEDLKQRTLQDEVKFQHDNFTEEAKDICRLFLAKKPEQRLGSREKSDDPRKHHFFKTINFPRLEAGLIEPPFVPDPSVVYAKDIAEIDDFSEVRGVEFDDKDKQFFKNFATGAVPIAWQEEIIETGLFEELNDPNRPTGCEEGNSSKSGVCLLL
Procedure, shortened: as §1

[5] = target: T3, NEK5 (Homo sapiens, UniProt Q6P3R8); conditions: NEK5, 1 μM; read-out: % control
T3 sequence (Q6P3R8 1-708): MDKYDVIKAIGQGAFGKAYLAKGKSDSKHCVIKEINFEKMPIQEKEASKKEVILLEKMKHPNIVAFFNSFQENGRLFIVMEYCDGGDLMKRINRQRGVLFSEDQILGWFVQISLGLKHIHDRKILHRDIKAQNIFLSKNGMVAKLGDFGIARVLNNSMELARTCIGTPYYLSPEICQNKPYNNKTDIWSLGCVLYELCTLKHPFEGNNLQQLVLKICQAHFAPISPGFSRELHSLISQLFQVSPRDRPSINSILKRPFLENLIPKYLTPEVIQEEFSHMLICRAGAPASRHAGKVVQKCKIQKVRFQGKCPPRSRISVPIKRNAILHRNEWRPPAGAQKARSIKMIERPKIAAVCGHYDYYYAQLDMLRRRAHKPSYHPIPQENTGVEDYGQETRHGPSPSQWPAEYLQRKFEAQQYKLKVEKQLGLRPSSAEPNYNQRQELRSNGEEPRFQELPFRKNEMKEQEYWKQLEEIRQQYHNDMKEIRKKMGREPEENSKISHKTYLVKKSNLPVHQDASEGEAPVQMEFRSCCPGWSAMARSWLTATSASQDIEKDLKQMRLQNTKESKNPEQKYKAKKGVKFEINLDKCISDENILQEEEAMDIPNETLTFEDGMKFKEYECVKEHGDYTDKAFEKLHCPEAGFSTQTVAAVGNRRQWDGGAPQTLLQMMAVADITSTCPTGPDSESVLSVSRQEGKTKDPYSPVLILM
Procedure, shortened: as §1

[6] = target: EGFR(T790M) (Homo sapiens, UniProt P00533, T790M); conditions: read-out: % control
Procedure, shortened: as §1

[7] = target: MTOR (Homo sapiens, UniProt P42345); conditions: read-out: % control
Procedure, shortened: as §1

[8] = target: T4, JNK1 (Homo sapiens, UniProt P45983); conditions: JNK1, 1 μM; read-out: % control
T4 construct: purchased KinomeScan®
Procedure, shortened: as §1

Sequence of MKNK1 (Q9BUB5 whole entry): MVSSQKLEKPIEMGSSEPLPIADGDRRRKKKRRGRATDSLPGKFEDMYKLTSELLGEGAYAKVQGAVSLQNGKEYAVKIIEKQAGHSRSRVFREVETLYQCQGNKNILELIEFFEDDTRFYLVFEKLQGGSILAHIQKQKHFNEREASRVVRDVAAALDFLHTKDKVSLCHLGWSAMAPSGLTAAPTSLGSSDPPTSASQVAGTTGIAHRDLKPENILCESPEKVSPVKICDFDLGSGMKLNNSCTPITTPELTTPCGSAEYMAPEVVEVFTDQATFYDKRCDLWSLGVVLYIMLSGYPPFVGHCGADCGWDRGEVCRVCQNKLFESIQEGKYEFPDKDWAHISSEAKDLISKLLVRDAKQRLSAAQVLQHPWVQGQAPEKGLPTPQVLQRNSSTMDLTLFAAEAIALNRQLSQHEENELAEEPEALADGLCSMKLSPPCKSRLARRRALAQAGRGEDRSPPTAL
T4 sequence (P45983 whole entry): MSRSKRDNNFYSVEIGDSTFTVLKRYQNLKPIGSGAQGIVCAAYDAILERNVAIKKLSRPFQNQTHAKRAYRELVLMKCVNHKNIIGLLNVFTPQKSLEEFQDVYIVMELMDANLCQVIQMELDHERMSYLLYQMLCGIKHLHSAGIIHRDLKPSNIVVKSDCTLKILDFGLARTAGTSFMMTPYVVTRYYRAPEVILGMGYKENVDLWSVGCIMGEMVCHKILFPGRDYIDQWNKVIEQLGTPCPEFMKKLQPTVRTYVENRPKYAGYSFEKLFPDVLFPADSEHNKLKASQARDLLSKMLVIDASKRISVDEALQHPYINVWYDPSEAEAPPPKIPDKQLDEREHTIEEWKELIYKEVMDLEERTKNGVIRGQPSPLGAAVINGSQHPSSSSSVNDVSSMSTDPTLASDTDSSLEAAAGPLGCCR
Sequence of PRKCQ (Q04759 whole entry): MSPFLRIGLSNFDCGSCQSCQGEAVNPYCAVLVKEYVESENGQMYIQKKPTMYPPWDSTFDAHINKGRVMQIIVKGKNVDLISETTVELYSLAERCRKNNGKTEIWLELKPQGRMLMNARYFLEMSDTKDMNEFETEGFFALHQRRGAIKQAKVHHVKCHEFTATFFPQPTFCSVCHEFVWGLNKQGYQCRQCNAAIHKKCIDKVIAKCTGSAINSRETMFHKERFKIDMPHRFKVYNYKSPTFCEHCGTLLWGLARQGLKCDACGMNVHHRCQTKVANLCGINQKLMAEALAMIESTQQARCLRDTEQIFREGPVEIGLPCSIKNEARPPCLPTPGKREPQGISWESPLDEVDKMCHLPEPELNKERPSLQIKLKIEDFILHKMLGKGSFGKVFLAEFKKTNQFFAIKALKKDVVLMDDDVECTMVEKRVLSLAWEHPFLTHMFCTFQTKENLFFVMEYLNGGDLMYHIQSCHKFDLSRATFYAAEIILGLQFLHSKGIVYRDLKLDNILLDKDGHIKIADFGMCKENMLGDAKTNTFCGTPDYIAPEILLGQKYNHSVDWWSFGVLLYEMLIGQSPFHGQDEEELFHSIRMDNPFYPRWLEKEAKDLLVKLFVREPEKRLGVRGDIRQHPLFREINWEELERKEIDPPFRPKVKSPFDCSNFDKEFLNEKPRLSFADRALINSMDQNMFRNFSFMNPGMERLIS
Sequence of EGFR(T790M) (P00533 25-1210 T790M): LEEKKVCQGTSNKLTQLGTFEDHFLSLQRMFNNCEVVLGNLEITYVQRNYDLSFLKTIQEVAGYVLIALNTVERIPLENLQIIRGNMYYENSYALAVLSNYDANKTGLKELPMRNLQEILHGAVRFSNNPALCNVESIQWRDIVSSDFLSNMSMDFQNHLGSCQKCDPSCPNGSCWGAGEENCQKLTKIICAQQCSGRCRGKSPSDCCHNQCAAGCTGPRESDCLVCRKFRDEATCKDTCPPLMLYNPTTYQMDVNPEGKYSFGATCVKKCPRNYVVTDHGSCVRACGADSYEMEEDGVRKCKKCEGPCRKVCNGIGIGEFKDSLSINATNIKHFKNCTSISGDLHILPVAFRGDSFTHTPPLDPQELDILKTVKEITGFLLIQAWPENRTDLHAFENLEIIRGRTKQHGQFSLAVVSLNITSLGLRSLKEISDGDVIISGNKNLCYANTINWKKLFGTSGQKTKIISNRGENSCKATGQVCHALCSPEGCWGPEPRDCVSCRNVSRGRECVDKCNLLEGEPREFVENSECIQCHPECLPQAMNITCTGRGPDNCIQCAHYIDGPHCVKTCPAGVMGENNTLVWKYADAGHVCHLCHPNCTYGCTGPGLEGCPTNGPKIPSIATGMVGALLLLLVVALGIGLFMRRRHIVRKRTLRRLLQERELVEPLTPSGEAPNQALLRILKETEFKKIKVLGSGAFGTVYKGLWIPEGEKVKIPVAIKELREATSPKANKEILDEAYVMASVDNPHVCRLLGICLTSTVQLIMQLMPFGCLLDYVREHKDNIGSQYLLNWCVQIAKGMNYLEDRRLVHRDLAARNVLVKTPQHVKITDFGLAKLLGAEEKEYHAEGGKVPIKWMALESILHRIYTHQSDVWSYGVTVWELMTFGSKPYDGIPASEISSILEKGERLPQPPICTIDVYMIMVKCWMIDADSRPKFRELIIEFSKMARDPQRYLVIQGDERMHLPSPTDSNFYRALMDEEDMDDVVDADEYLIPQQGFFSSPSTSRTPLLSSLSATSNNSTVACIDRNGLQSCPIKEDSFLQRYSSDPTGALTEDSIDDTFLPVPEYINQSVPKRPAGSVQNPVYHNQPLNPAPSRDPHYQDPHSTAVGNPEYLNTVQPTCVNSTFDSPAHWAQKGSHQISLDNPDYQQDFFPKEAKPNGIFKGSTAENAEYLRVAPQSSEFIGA

| Structure (SMILES) | remaining binding at 1 µM [1] | remaining binding at 1 µM [2] | remaining binding at 1 µM [3] | remaining binding at 1 µM [4] | remaining binding at 1 µM [5] | remaining binding at 1 µM [6] | remaining binding at 1 µM [7] | remaining binding at 1 µM [8] |
| --- | --- | --- | --- | --- | --- | --- | --- | --- |
| CNc1c(-c2cnn([C@H]3CCN(C(C)=O)C[C@@H]3F)c2)cnc2[nH]cc(Cl)c12 [Compound 77, 1-((3S,4S)-4-(4-(3-chloro-4-(methylamino)-1H-pyrrolo[2,3-b]pyridin-5-yl)-1H-pyrazol-1-yl)-3-fluoropiperidin-1-yl)ethan-1-one] | 97% | 51% | 91% | 100% | 79% | 93% | 60% | 1.1% |
| CNc1c(-c2ccc(C(=O)N3CCC(N4CCOCC4)CC3)cc2)cnc2[nH]cc(Cl)c12 [Compound 96, (4-(3-chloro-4-(methylamino)-1H-pyrrolo[2,3-b]pyridin-5-yl)phenyl)(4-morpholinopiperidin-1-yl)methanone] | 100% | 66% | 76% | 100% | 99% | 83% | 78% | 0.05% |
| O=C(c1ccc(-c2cnc3[nH]cc(Cl)c3c2NC2CCCC2)cc1)N1CCC(N2CCOCC2)CC1 [Compound 101, (4-(3-chloro-4-(cyclopentylamino)-1H-pyrrolo[2,3-b]pyridin-5-yl)phenyl)(4-morpholinopiperidin-1-yl)methanone] | 100% | 70% | 45% | 94% | 99% | 100% | 95% | 7.1% |
